Results reported in US20240216412A1, “OXIDIZED NICOTINAMIDE ADENINE DINUCLEOTIDE (NAD+) PRECURSOR TREATMENT FOR HEART FAILURE ALLEVIATION INDEPENDENT OF MITOCHONDRIAL PROTEIN DEACETYLATION” (University of Washington, priority 2022, published 2024).

Experiments:
[1] = tested on: chronic pressure overload (TAC) induced heart failure in WT and Sirt3Ko mice; assay: Survival, organ weight and histology (HW/TL, lung edema, fibrosis) after TAC; assay type: in vivo, mouse
Protocol: Mice randomly received either NR (500 mg/kg body weight) (Canto et al., 2012) or vehicle saline daily for eight-weeks. Representative M-mode images for the echocardiography can be found in FIGS. 1C and 1D. Four weeks of chronic pressure overload caused similar declines in left ventricular fractional shortening (FS %) in mice randomized to NR or vehicle groups for either WT or Sirt3Ko (FIGS. 1E and 1F). […] Similar to NR treated WT, cardiac hypertrophy, left ventricular cavity dilation, and lung edema were less severe in Sirt3Ko TAO mice that received NR treatment (FIGS. 1B-1J). All echocardiography parameters can be found in Table 1 below.
Transverse aortic constriction. Male mice (3-4 months old) underwent transverse aortic constriction (TAC) or sham surgery. Briefly, mice were anesthetized with an IP injection of 130 mg/kg ketamine and 8.8 mg/kg xylazine in saline. Mice were intubated with 20 G cannula and ventilated 140 breaths per minute by small animal TOPO ventilator (Kent Scientific). The aortic arch was exposed via a left thoracotomy and by carefully separating the thymus. A constriction of the transverse aorta was generated by tying a 6-0 Ethilon ligature against a 27-gauge blunt needle around the aorta between the brachiocephalic and left common carotid arteries. Promptly the needle was removed and the chest and skin were closed by 5-0 polypropylene suture. The animal was removed from ventilation and kept on a heating blanket during recovery from anesthesia. SR buprenorphine (0.05 mg/kg) was administered subcutaneously for analgesia. Sham operated mice underwent all the same procedures as TAC mice excluding the constriction of the aorta. All mice were monitored every 12 h during the first 72 h post-surgery, followed by daily visits over the next 4 weeks.
(§1) Organ weight and histological assessment. Hearts from mice were harvested, rinsed briefly in 1×PBS, blotted dry, and weighed. Lungs from the same mice were harvested, weighed, then dried at 56 C. After 72 hours the lungs were weighed again. Heart weight (HW) and Lung weight (LW) was normalized to tibia length (TL) to assess changes in hypertrophic growth and lung edema, respectively. For histology, hearts were perfusion fixed with 10% neutral buffered formalin. Longitudinal sections of hearts were stained with Masson's Trichrome for assessment of fibrosis by the University of Washington Histology and Imaging Core.

[2] = tested on: isoproterenol (ISO) induced heart failure in WT and Sirt3Ko mice; assay: Isoproterenol (ISO) minipump induced heart failure, echocardiography and HW/TL; assay type: in vivo, mouse; conditions: 14 days of ISO, NR 500 mg/kg body weight IP daily
Protocol: Minipump implantation. Pathologic hypertrophy was induced by treating male (3-4 months old) Sirt3ko and WT mice with isoproterenol (ISO) or vehicle for 14 days. Mice with and without GW6471(4.5 mg/kg/day) were treated with NR (500 mg/kg body weight IP daily) or vehicle starting at day one after mini-pump insertion. Briefly, an incision was made in the skin between the shoulder blades. A deep subcutaneous pocket was made caudal to the incision using blunt dissection. The sterile minipump (Alzet #2002) was inserted into the pocket, and the incision was closed with wound clips. Isoproterenol (30 mg/kg/day) was delivered by osmotic minipump for 14 days. Minipumps carrying saline were used as a control.
Transthoracic Echocardiography. Echocardiography of hearts was performed at indicated time after surgery using the VEVO 2100 high-frequency, high-resolution digital imaging system (VisualSonics) equipped with a MS400 Microscan Transducer on anesthetized mice (0.5%-2% isoflurane in 95% oxygen). Measurements were made when heart rate was >450 bpm. Cardiac function and geometry measurements were measured in parasternal short axis view. M-mode images were used for analysis and calculated by the average of at least three cardiac cycles and carried out in a blind fashion. Hearts were harvested at 12-week post-surgery for subsequent experiments and biochemical assays.
as §1

[3] = Sirt3Ko TAC mice, similar to NR treated WT

Compound: NC(=O)c1ccc[n+]([C@@H]2O[C@H](CO)[C@@H](O)[C@H]2O)c1 [NR, Nicotinamide riboside chloride]
- Fibrosis (Masson's trichrome) ([1]; Sirt3Ko TAC mice): decreased fibrosis
- Cardiac hypertrophy [1, 3]: less severe
- Lung edema [1, 3]: less severe
- Mortality (Kaplan-Meier survival curve analysis) ([1]; WT and Sirt3Ko TAC mice, NR vs vehicle for eight weeks): no significant difference in mortality
- Cardiac hypertrophy [2]: partially reduced
- FS % [2]: increased
